Series [1] has as its target Acetylcholinesterase (Electrophorus electricus) (UniProt O42275). Nature of the series: Inhibition of electric eel AChE using acetylthiocholine iodide as substrate at 20 uM incubated for 20 mins by Ellman's method relative to control.
The target in series [2] is Cholinesterase (Equus caballus) (UniProt P81908). The experiment in a line: Inhibition of equine serum BChE at 20 uM by Ellman's method relative to control. The class given is cell-free. A general note: Ellman's reagent forms a yellow product with free thiols.
Cholinesterase (Equus caballus), sequence (P81908 whole entry): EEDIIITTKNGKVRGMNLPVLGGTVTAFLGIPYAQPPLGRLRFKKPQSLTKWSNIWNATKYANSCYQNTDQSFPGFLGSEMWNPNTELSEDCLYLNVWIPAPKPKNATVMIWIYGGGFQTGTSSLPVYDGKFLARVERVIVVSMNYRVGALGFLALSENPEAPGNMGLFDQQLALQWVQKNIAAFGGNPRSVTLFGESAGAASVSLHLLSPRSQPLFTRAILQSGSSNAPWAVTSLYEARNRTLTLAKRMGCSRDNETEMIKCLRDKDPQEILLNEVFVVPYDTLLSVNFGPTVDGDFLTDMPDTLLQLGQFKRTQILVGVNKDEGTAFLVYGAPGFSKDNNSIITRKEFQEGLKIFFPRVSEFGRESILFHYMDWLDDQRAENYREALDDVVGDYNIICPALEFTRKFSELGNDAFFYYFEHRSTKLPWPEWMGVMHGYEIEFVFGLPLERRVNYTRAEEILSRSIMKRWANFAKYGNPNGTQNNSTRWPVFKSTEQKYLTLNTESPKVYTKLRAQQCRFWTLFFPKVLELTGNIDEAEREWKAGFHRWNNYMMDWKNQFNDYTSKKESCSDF
A further series concerns the target Acetylcholinesterase (Electrophorus electricus, UniProt O42275). Nature of the series: Inhibition of electric eel AChE using acetylthiocholine iodide as substrate incubated for 20 mins by Ellman's method.
For another series, the target named is Cholinesterase (Equus caballus, UniProt P81908). Nature of the series: Inhibition of equine serum BChE by Ellman's method. The class given is cell-free.
Cholinesterase, sequence (P81908 whole entry): as above
Series [3] relates to RAW264.7. Nature of the series: Antiinflammatory activity against mouse RAW264.7 cells assessed as inhibition of LPS-induced nitric oxide production at 20 uM preincubated for 24 hrs followed by LPS stimulation by Griess reagent-based colorimetric assay relative to control. The class given is functional. Further details: scale not given: the % may be the effect or the level left. In general terms: Nitrite, measured by Griess reagent, commonly stands in for NO production.

Series [4] relates to RAW264.7. Nature of the series: Antiinflammatory activity against mouse RAW264.7 cells assessed as inhibition of LPS-induced nitric oxide production preincubated for 24 hrs followed by LPS stimulation by Griess reagent-based colorimetric assay. Format: functional, cell-based.
The target in series [5] is Acetylcholinesterase (Electrophorus electricus) (UniProt O42275). The experiment in a line: Non competitive inhibition of Electric eel AChE using acetylthiocholine iodide as substrate assessed as decrease in Vmax with constant Km by Lineweaver-Burk plot analysis.
Acetylcholinesterase (Electrophorus electricus), sequence (O42275 24-633 limits assumed): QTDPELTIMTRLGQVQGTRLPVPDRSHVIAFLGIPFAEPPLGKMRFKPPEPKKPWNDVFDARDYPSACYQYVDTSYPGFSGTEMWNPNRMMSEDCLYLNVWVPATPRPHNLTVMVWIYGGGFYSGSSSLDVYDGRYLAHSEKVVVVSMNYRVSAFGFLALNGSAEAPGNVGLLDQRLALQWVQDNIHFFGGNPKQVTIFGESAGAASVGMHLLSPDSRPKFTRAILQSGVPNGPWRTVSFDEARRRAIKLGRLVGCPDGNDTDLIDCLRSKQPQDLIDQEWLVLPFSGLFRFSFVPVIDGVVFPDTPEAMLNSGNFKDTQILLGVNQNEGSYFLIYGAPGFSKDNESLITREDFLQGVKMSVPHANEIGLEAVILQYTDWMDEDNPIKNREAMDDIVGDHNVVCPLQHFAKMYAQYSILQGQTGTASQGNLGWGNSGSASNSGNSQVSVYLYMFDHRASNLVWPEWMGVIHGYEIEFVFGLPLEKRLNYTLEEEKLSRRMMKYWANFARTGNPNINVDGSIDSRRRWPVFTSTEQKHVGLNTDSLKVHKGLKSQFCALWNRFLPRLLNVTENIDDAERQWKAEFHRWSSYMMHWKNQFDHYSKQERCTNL
Series [6] addresses Cholinesterase (Equus caballus) (UniProt P81908). The experiment in a line: Non competitive inhibition of equine serum BChE assessed as decrease in Vmax with constant Km by Lineweaver-Burk plot analysis. Format: cell-free.
The next series deals with BV-2. The experiment in a line: Cytotoxicity against mouse BV-2 cells assessed as reduction in cell viability at 10 uM incubated for 24 hrs by CCK-8 assay. Format: toxicity, cell-based. The conditions noted are these: bv-2, 24 h. A general note: Tetrazolium assays rely on reduction of a dye to a coloured formazan, in cell work by metabolically active cells.

Experimental findings from ChEMBL document CHEMBL5321215, “Discovery of quinazolin-4(3H)-one derivatives as novel AChE inhibitors with anti-inflammatory activities” (Eur J Med Chem, 2023) are described below.

Activity calls are given as the source filed them. The calls are words filed in the database; no cut-off is given here. Bounds are passed on as bounds.

Acetylcholinesterase, sequence (O42275 whole entry): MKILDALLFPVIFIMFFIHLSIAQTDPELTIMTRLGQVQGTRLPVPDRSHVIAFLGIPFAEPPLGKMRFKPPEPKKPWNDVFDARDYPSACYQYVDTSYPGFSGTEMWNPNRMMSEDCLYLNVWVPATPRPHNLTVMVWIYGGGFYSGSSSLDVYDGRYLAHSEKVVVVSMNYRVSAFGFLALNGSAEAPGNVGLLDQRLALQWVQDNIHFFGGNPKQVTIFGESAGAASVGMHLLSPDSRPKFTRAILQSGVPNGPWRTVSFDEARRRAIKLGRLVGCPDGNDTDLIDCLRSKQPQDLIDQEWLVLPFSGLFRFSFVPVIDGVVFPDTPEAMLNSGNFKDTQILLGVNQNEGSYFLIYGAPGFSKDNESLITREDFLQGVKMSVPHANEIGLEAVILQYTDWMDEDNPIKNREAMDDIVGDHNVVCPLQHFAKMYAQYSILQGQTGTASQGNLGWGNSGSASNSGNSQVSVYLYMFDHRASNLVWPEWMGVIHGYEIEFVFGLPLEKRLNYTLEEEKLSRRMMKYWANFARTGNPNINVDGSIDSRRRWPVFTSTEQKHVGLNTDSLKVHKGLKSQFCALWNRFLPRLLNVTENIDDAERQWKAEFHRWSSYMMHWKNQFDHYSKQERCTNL

In the case of `COc1cc(OC)c2c(=O)[nH]c(-c3ccc(N4CCN(CCO)CC4)cc3)nc2c1`, the inhibition in series [1] stood at 62.4%; in series [2], 3.32%.
Take `COc1cc(OC)c2c(=O)[nH]c(-c3ccc(O[C@@H]4O[C@H](CO)[C@@H](O)[C@@H](O)[C@H]4O)cc3)nc2c1`: the figures for the inhibition in series [1] and in series [2] were 32.8% and 11.3%, respectively.
In the same order, the values of `COc1cc(OC)c2c(=O)[nH]c(-c3cccs3)nc2c1` are 44.2% and 35.3%.
In the same order, the values of `COc1cc(-c2nc3ccc(NCc4ccc(N5CCN(C)CC5)cc4)cc3c(=O)[nH]2)cc(OC)c1OC` are 23.6% and “inactive”.
`COc1cc(-c2nc3ccc([N+](=O)[O-])cc3c(=O)[nH]2)cc(OC)c1OC`: the inhibition in series [1] came out at 2.52%. For the same compound, the inhibition entry in [2] is “inactive”.
Consider `COc1cc(OC)c2c(=O)[nH]c(C(=O)c3ccc(O)cc3)nc2c1`, for which the inhibition in series [1] turned out to be 7.74%. Besides, in [2], the inhibition entry is “inactive”.
Take `COc1cc(OC)c2c(=O)[nH]c(-c3nc[nH]c3C)nc2c1`: the figures for the inhibition in series [1] and in series [2] were 60.8% and 25.9%, respectively. The results for the half-maximal inhibitory concentration (IC50) on Acetylcholinesterase and against Cholinesterase were 28.1 µM and > 20 µM, respectively. In the series with RAW264.7 [3], the Activity came to 61.2%.
Regarding `COc1cc(OC)c2c(=O)[nH]c(-c3ccc(N4CCNCC4)cc3)nc2c1`, the inhibition in series [1] was determined as 44.2%. The inhibition result in series [2] is “inactive”.
On the same counts, the results for `COc1cc(OC)c2c(=O)[nH]c(-c3cc(OC)c(OC)c(OC)c3)nc2c1` are 38.7% and 10.9%.
On the same counts, the results for `COc1cc(-c2nc3ccc(NC(=O)CCN4CCN(C)CC4)cc3c(=O)[nH]2)cc(OC)c1OC` are 24.7% and “inactive”.
In the same order, the values of `COc1cc(-c2nc3ccc(NC(=O)CCN4CCCCC4)cc3c(=O)[nH]2)cc(OC)c1OC` are 26.1% and 14.6%.
Regarding `COc1cc(-c2nc3ccc(NC(=O)c4ccc(Cl)cc4)cc3c(=O)[nH]2)cc(OC)c1OC`, the inhibition was determined as 10.6% in [1] and 14.9% in series [2].
Consider `CN1CCN(c2ccc(-c3nc4ccc(N)cc4c(=O)[nH]3)cc2)CC1`, for which the inhibition in series [1] is 58.6%; in [2], 3.32%.
`COc1cc(OC)c2c(=O)[nH]c(C3CCN(Cc4ccccc4)CC3)nc2c1`: the inhibition is 83.4% in series [1] and 59.1% in series [2]. Moreover, the IC50 at Acetylcholinesterase was determined as 7.88 µM; against Cholinesterase, 36.9 µM; in the series on RAW264.7 [4], 21.3 µM. The Activity with RAW264.7 [3] was determined as 60.5%.
For `COc1cc(-c2nc3ccc(NC(=O)CCN4CCC(O)CC4)cc3c(=O)[nH]2)cc(OC)c1OC`, the inhibition in series [1] worked out at 20.2%; in series [2], 15.8%.
With `COc1cc(-c2nc3ccc(NC(=O)CCl)cc3c(=O)[nH]2)cc(OC)c1OC`, the results for the inhibition in [1] and in series [2] were 32.5% and 9.51%, respectively.
On the same counts, the results for `COc1cc(-c2nc3ccc(NC(=O)CN4CCCCC4)cc3c(=O)[nH]2)cc(OC)c1OC` are 24.6% and “inactive”.
Regarding `COc1cc(OC)c2c(=O)[nH]c(-c3ccc(-c4ccncc4)cc3)nc2c1`, the inhibition was found to be 30.9% in [1] and 1.72% in series [2].
In the case of `COc1cc(OC)c2c(=O)[nH]c(-c3ccc(N4CCN(C(=O)OC(C)(C)C)CC4)cc3)nc2c1`, the inhibition in [1] stood at 37.4%. The inhibition result in series [2] is “inactive”.
`CCN(CC)c1ccc(-c2nc3cc(OC)cc(OC)c3c(=O)[nH]2)cc1` yielded an inhibition in [1] of 23.7%. Moreover, the inhibition result in series [2] was “inactive”.
For `CN1CCN(c2ccc(-c3nc4ccc([N+](=O)[O-])cc4c(=O)[nH]3)cc2)CC1`, the results for the inhibition in series [1] and in [2] were 69.4% and 63.7%, respectively. For the same compound, the IC50 on Acetylcholinesterase is 5.49 µM; at Cholinesterase, > 100 µM. Further, the Activity in the series with RAW264.7 [3] was determined as 27.1%.
Consider `COc1cc(OC)c2c(=O)[nH]c(-c3c[nH]c4ccccc34)nc2c1`, for which the inhibition came to 31.9% in series [1] and 8.91% in [2].
As to `COc1cc(-c2nc3ccc(NCC4CCN(Cc5ccccc5)CC4)cc3c(=O)[nH]2)cc(OC)c1OC`, the results for the inhibition in series [1] and in [2] were 69% and 68.6%, respectively. In addition, the IC50 at Acetylcholinesterase came to 4.31 µM; at Cholinesterase, 11.2 µM. Further, the values for the Activity in the series on RAW264.7 [3] and in the series on BV-2 were 94% and “Toxic”, respectively. The inhibition entry in series [5] and in [6] was “Active” in each case.
For `O=c1[nH]c(C2CCN(Cc3ccccc3)CC2)nc2ccc([N+](=O)[O-])cc12`, the inhibition in series [1] turned out to be 59.6%. Moreover, in series [2], the inhibition entry is “inactive”. Further, the values for the IC50 against Acetylcholinesterase and at Cholinesterase were 6.86 µM and > 20 µM, respectively. Also, in the series on RAW264.7 [3], the Activity came to 40.4%.
As to `COc1cc(-c2nc3ccc(NC(=O)c4ccc(Br)cc4)cc3c(=O)[nH]2)cc(OC)c1OC`, the values for the inhibition in series [1] and in series [2] were 23.5% and 8.3%, respectively.
As to `O=c1[nH]c(C2CCN(Cc3ccccc3)CC2)nc2ccc(Br)cc12`, the inhibition came out at 31.7% in series [1] and 14.6% in [2].
As for `COc1cc(-c2nc3ccc(NC(=O)c4ccc(F)cc4)cc3c(=O)[nH]2)cc(OC)c1OC`, the inhibition in series [1] amounted to 6.3%; in series [2], 12.7%.
Consider `CN1CCN(c2ccc(-c3nc4ccc(Br)cc4c(=O)[nH]3)cc2)CC1`, for which the inhibition in [1] stood at 60.8%; in series [2], 31.2%. Moreover, the 50% inhibitory concentration (IC50) at Acetylcholinesterase is 16.1 µM; against Cholinesterase it was > 20 µM. In addition, the Activity in the series on RAW264.7 [3] turned out to be 42.7%.
On the same counts, the results for `CN1CCN(c2ccc(-c3nc4ccccc4c(=O)[nH]3)cc2)CC1` are 68.1%, 24.1%, 30.4 µM, > 20 µM and 45.6%.
Turning to `O=c1[nH]c(C2CCN(Cc3ccccc3)CC2)nc2ccccc12`, the inhibition in series [1] was found to be 63.3%; in [2] it was 48.6%.
In the same order, the values of `COc1cc(-c2nc3ccccc3c(=O)[nH]2)cc(OC)c1OC` are 47.9% and 32.9%.
On the same counts, the results for `COc1cc(-c2nc3ccc(Br)cc3c(=O)[nH]2)cc(OC)c1OC` are 33.8% and 12.4%.
Consider `COc1cc(OC)c2c(=O)[nH]c(-c3c[nH]cn3)nc2c1`, for which the figures for the inhibition in [1] and in series [2] were 40.4% and 13.1%, respectively.
`COc1cc(OC)c2c(=O)[nH]c(C(=O)c3cc(OC)c(OC)c(OC)c3)nc2c1`: the inhibition in [1] was 23.1%. In series [2], the inhibition entry is “inactive”.
In the same order, the values of `COc1cc(OC)c2c(=O)[nH]c(-c3ccc(N4CCOCC4)cc3)nc2c1` are 47.3% and 16.5%.
As to `C[C@@H]1C[C@H]2[C@@H]3CCC4=CC(=O)C=C[C@]4(C)[C@@]3(F)[C@@H](O)C[C@]2(C)[C@@]1(O)C(=O)CO` [DEXAMETHASONE], the Activity in the series on RAW264.7 [3] was 60.3%. Also, in the series on RAW264.7 [4], the half-inhibitory concentration (IC50) stood at 11.5 µM.

What is called inhibition is the share of the control response that was lost under treatment. A word on the IC50: it is the midpoint of a concentration-inhibition curve.
